Measurements: patent publication US11286256B2, “Bicyclic inhibitors of histone deacetylase” (Alkermes, Inc., priority 2017, dated 2022)
Converted amounts (≈) assume the structure as drawn.

Experiments:
CYP2D6 = molecular target: T1, CYP2D6 (Homo sapiens, UniProt P10635); test: CYP inhibition assay in human liver microsomes (2D6); assay type: in vitro ADME; conditions: for inhibition of CYP2D6 (in words): 10 μM; for inhibition at 10 min, 10 µM: human liver microsomes
T1 construct: Human liver microsomes were obtained from BD Gentest; tissue BD Gentest; host or cells: human liver microsomes
Protocol: (§1) Compounds were tested to evaluate their inhibitory potential on CYP2D6 and CYP3A4 (midazolam) using human liver microsomes. Human liver microsomes were obtained from BD Gentest, and each compound was run in duplicate.
(§2) The test compounds and reference inhibitors (quinidine for 2D6, ketoconazole for 3A4) were plated in a 96-well plate by transferring 8 μL of 10 mM stock solutions of compound in DMSO to 12 μL of acetonitrile. Individual inhibitor spiking solutions were prepared for CYP2D6 and CYP3A4 (8 μL of DMSO stock added to 12 μL of acetonitrile). Next added 400 μL of 0.2 mg/mL HLM to the assay wells and then added 2 μL of 400× test compound into the designated wells on ice. Next, added 200 μL of 0.2 mg/mL HLM to the assay wells and then added 1 μL of reference inhibitor solutions into the designated wells. The following solutions were added (in duplicate) to a 96-well assay plate on ice: The test compounds and reference inhibitors (quinidine for 2D6, ketoconazole for 3A4) were tested using the following experimental procedure:
(§3) 10. Incubate the assay plate at 37° C. 5 min for 3A4, 10 min for 2D6.
(§4) 11. Stop the reaction by adding 120 μL of ACN containing Internal Standard. For CYP3A4, the internal standard is 1′OH-midazolam-D4 (10 μM solution diluted to a final concentration of 0.1 μM by adding 100 μL internal standard stock to 10 mL ACN). For CYP2D6, the internal standard is 1-OH-Bufuralol-maleate-[D9] (49 μM solution diluted to a final concentration of 0.1 μM by adding 20 μL internal standard stock to 10 mL ACN).
(§5) The assessment on CYP isoform inhibition is as follows based on the assay results: if percentage of CYP inhibition is higher than 50%, indicates potent inhibition; if percentage of CYP inhibition is between 30-50%, indicates […]; if percentage of CYP inhibition is less than 30%, indicates slight or no inhibition. If the percentage of CYP inhibition is less than −30%, this indicates the compound may have some kind of activation of this isoform.

CYP3A4 = molecular target: T2, CYP3A4 (Homo sapiens, UniProt P08684); test: CYP inhibition assay in human liver microsomes (3A4, midazolam); assay type: in vitro ADME; conditions: for inhibition at 5 min, 10 µM: probe midazolam, human liver microsomes, midazolam
T2 construct: Human liver microsomes were obtained from BD Gentest; tissue BD Gentest; host or cells: human liver microsomes
Protocol: as §1, §2, §3, §4, §5

[1] = Aqueous kinetic solubility measurement; assay type: physicochemical; conditions: for solubility at 1 h: aqueous buffer, kinetic from dmso stock, kinetic, 100 mM phosphate buffer pH 7.4, 1% DMSO
Protocol: Compounds were evaluated for their kinetic solubility in buffer or water. Aliquots of 8 μL of reference and test compound stock solutions (10 mM in DMSO) were added into 792 μL of 100 mM phosphate buffer (0.1 M NaPO4, pH 7.4). Final DMSO concentration is 1%. The sample tubes were shaken for 1 hour (1000 rpm) at room temperature. A calibration curve was prepared using 300 μM spiking solution (SS) in MeOH/ACN(4:1) (SS=add 6 μL 10 mM compound in 194 μL MeOH/ACN(4:1)). Samples were centrifuged for 10 min (12000 rpm) to precipitate undissolved particles, and the supernatants were transferred to a new tube or plate. Supernatants were diluted 10 times and 100 times with 100 mM buffer. Samples were then prepared for analysis by LC-MS/MS (Add 5 μL of compound samples (not diluted, 10 times diluted and 100 times diluted) and standard curve samples to 95 μL of ACN containing internal standard. Internal standards used are Propranolol, Ketoconazole, and Tamoxifen.

HDAC2 [2] = molecular target: T3, HDAC2 (Homo sapiens, UniProt Q92769); test: HDAC2 recombinant enzymatic assay; assay type: biochemical; set-up: purchased BPS Bioscience; conditions: 5 h pre-incubation, 5 nM enzyme; read-out: HDAC recombinant enzymatic IC50 HDAC2
Protocol: (§6) The following describes an assay protocol for measuring the deacetylation of a peptide substrate by the enzymes HDAC2 or HDAC1.
(§7) All recombinant human HDACs were purchased from BPS Bioscience. The substrate, FAM-TSRHK(AC)KL-CONH, was synthesized at NanoSyn. Final assay reactions contained 100 mM HEPES (pH 7.5), 50 mM KCl, 0.1% BSA, 0.01% Triton X-100, 1% DMSO, 1 uM substrate and 5 nM HDAC enzyme. Enzyme and compounds were pre-incubated at 25° C. for 5 hours and reactions were initiated by addition of substrate. 10 uL reactions were incubated for 17 hours at 25° C. and terminated by the addition of 40 uL of buffer containing 100 mM HEPES (pH 7.5), 0.1% BSA, 0.01% Triton X-100 and 0.05% SDS. Substrate and product peptides present in each sample were separated electrophoretically using the LabChip 3000 capillary electrophoresis instrument. Change in the relative fluorescence intensity of the substrate and product peaks reflects enzyme activity. Reaction progress was determined as the product to sum ratio (PSR):P/(S+P), where P is the peak height of the product peptide and S is the peak height of the substrate peptide. Reactions were performed in duplicate at 12 concentrations, (3× serial dilutions starting at 30 uM). IC50 values were calculated using a 4 Parameter Logistic Model.

HDAC1 = molecular target: T4, HDAC1 (Homo sapiens, UniProt Q13547); test: HDAC1 recombinant enzymatic assay; assay type: biochemical; conditions: 5 h pre-incubation, 5 nM enzyme; read-out: HDAC recombinant enzymatic IC50 HDAC1
T4 construct: purchased BPS Bioscience
Protocol: as §6, §7

HDAC2 [3] = molecular target: T3, HDAC2; test: HDAC2 enzymatic inhibition assay in SY5Y cell lysate with HDAC-Glo2 substrate; assay type: cell-based; set-up: host or cells: SH-SY5Y; conditions: SH-SY5Y cells, 5 h compound incubation, HDAC-Glo 2 reagent
Protocol: HDAC2 Enzymatic Inhibition Assay in SY5Y Cell Lysate with HDAC-Glo2 Substrate
SH-SY5Y cells (Sigma) were cultured in Eagle's Modified Essential Medium supplemented with 10% fetal bovine serum and pen/strep. Twenty-four hours prior to compound dosing 20 uL of cells were plated in white 384 well plates at a density of 1,500 cells/well. Compounds were serially diluted in neat DMSO and then diluted 1:100 v/v into media without FBS and mixed. Media was removed from the plated cells and the diluted compounds in serum free media (1% v/v final DMSO) were added and incubated at 37.0 for five hours. Ten uL of HDAC-Glo 2 reagent with 0.1% Triton X-100 was then added, the plate was mixed and allowed to develop at room temperature for 100 minutes. Plates were then read with a Spectramax LMax luminometer employing a 0.4 s integration time. Dose response curves were constructed with normalized data where CI-994 at 100 uM was defined as 100% inhibition and DMSO alone as 0% inhibition.

[4] = system: human erythroid progenitors (CFU-E, BFU-E); test: Erythroid CFU assay in human bone marrow cells; assay type: cell-based
Protocol: (§8) Compounds were tested to evaluate the potential effects on human erythroid and myeloid progenitors using colony forming cell assays. Clonogenic progenitors of human erythroid (CFU-E, BFU-E), granulocyte-monocyte (CFU-GM) and multipotential (CFU-GEMM) lineages were assessed in a semi-solid methylcellulose-based media formulation containing rhlL-3 (10 ng/mL), rhGM-SCF (10 ng/mL), rhSCF (50 ng/mL) and Epo (3 U/mL).
(§9) Normal human bone marrow light density cells derived from normal bone marrow (NorCal Biologics, California) and qualified at ReachBio, were stored in the gaseous phase of liquid nitrogen (−152° C.) until required for the assay. On the day of the experiment, the cells were thawed rapidly, the contents of each vial was diluted in 10 mL of Iscove's modified Dulbecco's medium containing 10% fetal bovine serum (IMDM+10% FBS) and washed by centrifugation (approximately 1200 r.p.m. for 10 minutes, room temperature). The supernatant was discarded and the cell pellets resuspended in a known volume of IMDM+10% FBS. A cell count (3% glacial acetic acid) and viability assessment (trypan blue exclusion test) was performed for the bone marrow sample.
(§10) On the day of the experiment, the compounds were dissolved in DMSO to a stock concentration of 10 mM. Serial dilutions were prepared from the stock concentration to achieve concentrations of 2 and 0.4 mM. When added to the methylcellulose-based media at 1:1000 (v/v), the final test concentrations of 10, 2 and 0.4 μM were achieved. Additionally, 5-FU was evaluated at 1.0, 0.1 and 0.01 μg/mL.
(§11) Clonogenic progenitors of the human erythroid (CFU-E and BFU-E) and myeloid (CFU-GM) lineages were set up in the methylcellulose-based media formulations described above. All compounds were added to the medium to give the final desired concentrations (10, 2 and 0.4 μM). 5-Fluorouracil (Sigma Aldrich) was used as a positive control for progenitor proliferation (inhibition of colony growth) and was introduced to the human bone marrow cultures at 1.0, 0.1, and 0.01 μg/mL. Solvent control cultures (containing no compound but 0.1% DMSO) as well as standard controls (containing no compound and no DMSO) were also initiated.
(§12) Human myeloid and erythroid progenitor assays were initiated at 2.0×10^4 cells per culture. Following 14 days in culture, myeloid and erythroid colonies were assessed microscopically and scored by trained personnel. The colonies were divided into the following categories based on size and morphology: CFU-E, BFU-E, CFU-GM and CFU-GEMM.
(§13) The mean±one standard deviation of three replicate cultures was calculated for progenitors of each category (CFU-E, BFU-E, etc.). Two-tailed t-tests were performed to assess if there was a difference in the number of colonies generated between solvent control and treated cultures. Due to the potential subjectivity of colony enumeration, a p value of less than 0.01 is deemed significant. To calculate the concentration of 50% inhibition of colony growth (IC50) for each compound, a dose response curve was generated plotting the log of the compound concentration versus the percentage of control colony growth using XLfit software (IDBS). The concentration of 50% inhibition of colony growth (IC50) was calculated based on the sigmoid curve fit using Dose-Response, One-Site Model formula: y=A+[(B−A)/(1+((C/x)^D))], where A=the initial value (baseline response), B=maximum response, C=center (drug concentration that provokes a response halfway between A and B) and D=slope of the curve at midpoint. Further, plots and additional dose response curves were generated using GraphPad Prism 7.0.
(§14) Erythroid (CFU-E and BFU-E), myeloid (CFU-GM) and multi-potential (CFU-GEMM) colony enumeration was performed by trained personnel. The distribution of colony types as well as general colony and cellular morphology was analyzed. For statistical analysis colony numbers in compound treated cultures were compared to the solvent control cultures. […]

[5] = system: human myeloid progenitors (CFU-GM); test: Myeloid CFU assay in human bone marrow cells; assay type: cell-based
Protocol: as §8, §9, §10, §11, §12, §13, §14

[6] = 10 μM, 14 days culture, human bone marrow cells

T2 sequence (P08684 whole entry): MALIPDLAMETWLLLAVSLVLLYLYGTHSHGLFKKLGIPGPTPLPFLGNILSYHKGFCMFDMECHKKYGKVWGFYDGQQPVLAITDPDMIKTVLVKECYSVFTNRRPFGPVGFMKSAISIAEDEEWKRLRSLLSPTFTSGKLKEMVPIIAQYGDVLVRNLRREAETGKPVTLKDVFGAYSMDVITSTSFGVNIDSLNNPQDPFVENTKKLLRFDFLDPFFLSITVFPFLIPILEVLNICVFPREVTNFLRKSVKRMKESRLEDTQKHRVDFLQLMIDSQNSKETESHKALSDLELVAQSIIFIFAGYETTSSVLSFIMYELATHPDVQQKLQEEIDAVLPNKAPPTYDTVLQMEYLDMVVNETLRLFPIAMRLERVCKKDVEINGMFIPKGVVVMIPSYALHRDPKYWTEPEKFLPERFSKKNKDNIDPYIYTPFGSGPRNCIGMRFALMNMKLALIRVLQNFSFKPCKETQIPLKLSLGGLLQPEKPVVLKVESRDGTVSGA
T4 sequence (Q13547 whole entry): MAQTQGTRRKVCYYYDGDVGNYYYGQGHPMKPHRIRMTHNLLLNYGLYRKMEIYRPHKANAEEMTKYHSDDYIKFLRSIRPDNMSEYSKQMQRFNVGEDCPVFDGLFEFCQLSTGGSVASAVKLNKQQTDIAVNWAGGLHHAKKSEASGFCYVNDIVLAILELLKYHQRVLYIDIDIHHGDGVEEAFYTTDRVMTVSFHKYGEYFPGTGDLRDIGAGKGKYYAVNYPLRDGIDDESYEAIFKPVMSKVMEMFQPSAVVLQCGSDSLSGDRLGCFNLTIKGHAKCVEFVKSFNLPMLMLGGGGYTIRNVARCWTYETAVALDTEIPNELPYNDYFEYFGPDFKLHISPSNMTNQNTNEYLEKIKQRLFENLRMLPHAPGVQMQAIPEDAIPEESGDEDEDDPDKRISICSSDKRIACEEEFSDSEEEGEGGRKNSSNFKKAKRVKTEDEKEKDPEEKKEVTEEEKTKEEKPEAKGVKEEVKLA
T1 sequence (P10635 whole entry): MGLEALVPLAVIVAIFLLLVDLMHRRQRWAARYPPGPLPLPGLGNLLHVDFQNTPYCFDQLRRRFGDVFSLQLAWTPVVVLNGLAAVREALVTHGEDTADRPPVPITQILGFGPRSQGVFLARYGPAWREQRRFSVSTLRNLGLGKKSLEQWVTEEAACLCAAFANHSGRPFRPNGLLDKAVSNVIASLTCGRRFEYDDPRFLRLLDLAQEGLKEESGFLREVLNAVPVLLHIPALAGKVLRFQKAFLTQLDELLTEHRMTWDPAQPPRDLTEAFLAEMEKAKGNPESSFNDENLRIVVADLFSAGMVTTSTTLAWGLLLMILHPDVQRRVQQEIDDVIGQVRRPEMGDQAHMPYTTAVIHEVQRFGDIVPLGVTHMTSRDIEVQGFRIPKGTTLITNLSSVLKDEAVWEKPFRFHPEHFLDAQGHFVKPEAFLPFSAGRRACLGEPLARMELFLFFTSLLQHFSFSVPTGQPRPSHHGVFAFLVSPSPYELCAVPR
T3 sequence (Q92769 whole entry): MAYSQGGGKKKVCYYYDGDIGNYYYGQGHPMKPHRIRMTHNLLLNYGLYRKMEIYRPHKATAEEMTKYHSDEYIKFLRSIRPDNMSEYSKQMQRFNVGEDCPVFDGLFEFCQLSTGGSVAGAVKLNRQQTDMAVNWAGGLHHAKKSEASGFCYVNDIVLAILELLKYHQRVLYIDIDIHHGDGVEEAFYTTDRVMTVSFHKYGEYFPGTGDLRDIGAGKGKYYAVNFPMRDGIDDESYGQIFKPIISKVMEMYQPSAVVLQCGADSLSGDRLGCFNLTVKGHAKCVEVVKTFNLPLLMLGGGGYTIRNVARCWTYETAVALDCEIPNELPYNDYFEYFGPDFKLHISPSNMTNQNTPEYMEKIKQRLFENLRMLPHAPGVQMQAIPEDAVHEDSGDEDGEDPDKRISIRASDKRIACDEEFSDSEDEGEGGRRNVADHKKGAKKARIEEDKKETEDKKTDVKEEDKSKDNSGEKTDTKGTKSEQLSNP

Row | Compound | inhibition of CYP2D6 (in words) (CYP2D6) | inhibition at 10 min, 10 µM (CYP2D6) | inhibition at 5 min, 10 µM (CYP3A4) | solubility (in words) [1] | solubility at 1 h [1] | IC50 (HDAC2 [2]) | IC50 (HDAC1) | IC50 (HDAC2 [3]) | inhibition of CYP3A4 (in words) (CYP3A4; 10 μM) | CFU % Control remaining @ 10 μM Erythroid [4, 6] | CFU % Control remaining @ 10 μM Myeloid [5, 6] | inhibitory effects on erythroid colony growth (positive control, in words) ([4]; 1.0, 0.1 and 0.01 μg/mL) | inhibitory effects on myeloid colony growth (positive control, in words) ([5]; 1.0, 0.1 and 0.01 μg/mL)
1 | Nc1ccc(-c2ccc(F)cc2)nc1NC(=O)N1Cc2cccnc2C1 [Comparator F] | high levels | 62% | -4% | extremely low | 1 µM (≈ 0.349 µg/mL) | 304 nM | 79 nM | 394 nM | – | – | – | – | –
2 | Nc1ccc(-c2ccc(F)cc2)nc1NC(=O)N1Cc2ccncc2C1 [Comparator G] | inhibited at high levels | 94% | 65% | – | 55 µM (≈ 19.2 µg/mL) | 335 nM | 143 nM | 639 nM | inhibited at high levels | – | – | – | –
3 | COCc1cc2c(cn1)CN(C(=O)Nc1nc(-c3ccc(F)cc3)ccc1N)C2 [Comparator I] | – | 2% | 33% | – | 121 µM (≈ 47.6 µg/mL) | – | – | 666 nM | – | 23% | 59% | – | –

Further lines, results first:

Row | inhibition of CYP2D6 (in words) (CYP2D6) | inhibition at 10 min, 10 µM (CYP2D6) | inhibition at 5 min, 10 µM (CYP3A4) | solubility (in words) [1] | solubility at 1 h [1] | IC50 (HDAC2 [2]) | IC50 (HDAC1) | IC50 (HDAC2 [3]) | inhibition of CYP3A4 (in words) (CYP3A4; 10 μM) | CFU % Control remaining @ 10 μM Erythroid [4, 6] | CFU % Control remaining @ 10 μM Myeloid [5, 6] | inhibitory effects on erythroid colony growth (positive control, in words) ([4]; 1.0, 0.1 and 0.01 μg/mL) | inhibitory effects on myeloid colony growth (positive control, in words) ([5]; 1.0, 0.1 and 0.01 μg/mL) | Compound
4 | – | 57% | 28% | – | 78 µM (≈ 28.3 µg/mL) | 214 nM | 90 nM | 621 nM | – | – | – | – | – | Cc1cc2c(cn1)CN(C(=O)Nc1nc(-c3ccc(F)cc3)ccc1N)C2 [Comparator H]
5 | – | – | – | – | – | – | – | – | – | – | – | exactly as expected | exactly as expected | O=c1[nH]cc(F)c(=O)[nH]1 [Compound 5-FU, 5-Fluorouracil]
